# Columns and labels:
# female NMRI mice = test: Anorectic action: cumulative evaporated milk consumption after 24 h feed removal; assay type: in vivo; details: dose 10 mg/kg, i.p. or po (route not specified), compared with control animals
# Procedure: The anorectic action was tested on female NMRI mice. After removal of feed for 24 hours, the preparation to be tested was administered intraperitoneally (i.p.) or by gavage (po). The animals were housed singly and, with free access to drinking water, they were offered evaporated milk 30 minutes after administration of the preparation. The consumption of evaporated milk was determined and the general behavior of the animals was monitored every half an hour for 7 hours. The measured milk consumption was compared to that of vehicle-treated control animals.
smiles,measurement,setting,value
"CC(=O)OC1c2ccc(Cl)cc2CC1S(C)(=O)=O (centres unmarked) [Example 1, 1-Acetoxy-5-chloro-2-methylsulfonylindane]",Reduction in cumulative milk consumption as % of the control,female NMRI mice,81 % of the control
same,melting point,,136 °C
